Measurements taken from patent US9632092B2, “Reagent for diagnosing tumor, pharmaceutical composition, and screening method” (Tokyo Metropolitan Institute of Medical Science, priority 2012, dated 2017).
Where no end group is shown, it is not given here. [ ]: non-standard residue; d: D form. pS = N[C@@H](COP(=O)(O)O)C(=O)O

What was measured:
[1] = tested on: Nrf2; test: immunoblotting of nuclear and whole cell extracts of hepatocytes expressing p62 mutants; assay type: cell-based, mouse; conditions: normal hepatocytes
Description: Adenoviruses capable of expressing FLAG-tagged p62 w.t. […] Next, normal hepatocytes were cultured in 2 ml of growth medium (Williams E medium containing 10% fetal bovine serum, 5 U/mL penicillin, and 50 μg/mL streptomycin) for 24 hours. The medium was replaced with fresh medium containing the adenovirus at MOI of 50 and the culture was continued. Twenty-four hours after the replacement of the medium, whole cell extract (Total) and nuclear extract (Nucleus) were prepared. Next, immunoprecipitates were prepared from the whole cell extract with anti-FLAG antibody (Sigma Chemical). Then, the samples were separated by NuPAGE electrophoresis system (Invitrogen) on 12% bis-tris gel and MOPS-SDS buffer, and transferred to PVDF membranes. The signals were detected using anti-p62 antibody (GP62C: Progen Biotechnik), anti-Keap1 antibody (Proteintech Group), anti-phosphorylated p62 antibody, anti-Nqo1 antibody (Abcam), anti-Actin antibody (MAB1501R: Millipore), anti-Nrf2 antibody (H-300: Santa Cruz Biotechnology), and anti-LaminB antibody (M-20: Santa Cruz Biotechnology).

[2] = tested on: Huh-1_p62^−/− cells; test: subdermal transplantation of Huh-1_p62−/− cells with introduced p62 mutants into nude mice; assay type: in vivo; conditions: 50 days after transplantation, introduced into Huh-1_p62−/−
Description: First, p62 cDNAs which encode S349E (SEQ ID No. 8) (pseudo-phosphorylated p62) with the substitution of glutamic acid for serine 349 of human p62 (SEQ ID No. 7), S349A (SEQ ID No. 9) (non-phosphorylated p62) with the substitution of alanine for serine 349 of human p62, or T350A (SEQ ID No. 10) (p62 mutant defective in interacting with Keap1) with the substitution of alanine for threonine 350 of human p62 was prepared.
Next, a [Huh-1_p62^−/−] cell line was generated by knocking out the p62 gene in Huh-1 cells, using Zinc Finger Nuclease system (Sigma-Aldrich, CompoZr (registered trademark) Zinc Finger Nuclease). Then, adenoviruses having p62 w.t. or p62 mutant were produced, using Adenovirus expression kit (Takara Bio). The [Huh-1_p62^−/−] cells were cultured in 2 ml of a growth medium (Williams E medium containing 10% fetal bovine serum, 5 U/ml penicillin, and 50 μg/ml streptomycin) for 24 hours. The medium was replaced with a fresh medium containing adenovirus at MOI of 50 and the cells were continuously cultured. Wild-type human p62 (SEQ ID No. 7), S349E (SEQ ID No. 8), S349A (SEQ ID No. 9), and T350A (SEQ ID No. 10) were introduced into the [Huh-1_p62^−/−] cell line and thus a [Huh-1_p62^−/−_p62 w.t.] cell line with p62 w.t., a [Huh-1_p62^−/−_p62S349E] cell line with p62S349E, a [Huh-1_p62^−/−_p62S349A] cell line with p62S349A, and a [Huh-1_p62^−/−_p62T350A] cell line with p62T350A, respectively, in [Huh-1_p62^−/−] cell line was obtained.
Each of the cells was transplanted subdermally into […] nude mice. […] Each cell line was transplanted into five mice and the volume (left) and the weight (right) of the tumors were measured 50 days after the transplantation. Mean±standard error for each cell line was calculated and shown in the graphs in FIG. 7(b).

[3] = biological target: mouse Keap1-DC (aa321-609, SEQ ID No. 24) (Mus musculus, UniProt Q9Z2X8); test: isothermal titration calorimetry, binding to Keap1-DC; conditions: for Binding constant (Ka) to Keap1-DC: isothermal titration calorimetry, 25° C.; for binding affinity for Keap1-DC relative to KIR of the non-phosphorylated p62: fold higher binding constant
mouse Keap1-DC (aa321-609, SEQ ID No. 24), sequence (Q9Z2X8 321-609): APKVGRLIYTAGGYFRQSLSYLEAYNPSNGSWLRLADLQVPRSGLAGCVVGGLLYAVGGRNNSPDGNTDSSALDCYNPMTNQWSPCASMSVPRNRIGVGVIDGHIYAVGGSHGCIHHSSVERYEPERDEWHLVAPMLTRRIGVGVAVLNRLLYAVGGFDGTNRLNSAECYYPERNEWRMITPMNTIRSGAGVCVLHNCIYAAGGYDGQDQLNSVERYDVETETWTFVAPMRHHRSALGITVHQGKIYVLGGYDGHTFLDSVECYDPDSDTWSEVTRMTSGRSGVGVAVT
Description: Binding isotherms were obtained using isothermal titration calorimetry, for the interaction of mouse Keap1-DC (aa321-609, SEQ ID No. 24) with KIR in mouse non-phosphorylated p62 (SEQ ID No. 21), KIR in mouse phosphorylated p62 (SEQ ID No. 21), or an ETGE motif of mouse Nrf2 (SEQ ID No. 26) (FIG. 2).
First, isothermal titration calorimetry was performed using MicroCal iTC200 System (GE Healthcare) at 25° C. 2.5 μl of 0.1 mM solution of non-phosphorylated KIR (^348[sequence]^356, SEQ ID No. 21) was injected from a rotating syringe (1000 rpm) into 200 μl of 0.1 mM solution of Keap1-DC sixteen times at an interval of 3 minutes. 1.3 μl of 0.6 mM phosphorylated KIR (^348VDP(pS)TGELQ^356) solution was injected from a rotating syringe (1000 rpm) into 200 μl of 0.06 mM Keap1-DC solution thirty times at an interval of 2 minutes. […] The binding data were analyzed using Origin 7 software (GE healthcare).

| Binding constant (Ka) to Keap1-DC [3] | Substance | in vivo proliferation of the tumor cells (tumor volume and weight) [2] | other results |
| --- | --- | --- | --- |
| – | S351E: pseudo-phosphorylated mouse p62 mutant, glutamic acid for serine 351, SEQ ID No. 2 | – | Nrf2 accumulation in nuclei ([1]; nuclear extract): significantly accumulated; expression of Nqo1 (Nrf2 target) ([1]; whole cell extract): induced |
| – | S349A: non-phosphorylated human p62 mutant, alanine for serine 349, SEQ ID No. 9 | not recovered | – |
| – | T350A: human p62 mutant defective in interacting with Keap1, alanine for threonine 350, SEQ ID No. 10 [reference compound] | not recovered | – |
| (5.67±1.19)×10^4 M^−1 | non-phosphorylated p62-KIR: non-phosphorylated Keap1-interacting region peptide of mouse p62, 348VDPSTGELQ356, SEQ ID No. 21 (listed as Mus musculus) [reference compound] | – | – |
| – | p62 (S349E): pseudo-phosphorylated human p62 mutant, glutamic acid for serine 349, SEQ ID No. 8 | significantly enhanced | – |
| (5.12±1.80)×10^6 M^−1 | phosphorylated p62-KIR: Keap1-interacting region peptide of mouse p62 phosphorylated at serine 351, 348VDP(pS)TGELQ356 (VDP[pS]TGELQ; listed as Mus musculus) | – | binding affinity for Keap1-DC relative to KIR of the non-phosphorylated p62 [3]: about 100 times; binding affinity for Keap1-DC relative to KIR of the non-phosphorylated p62 ([3]; listed as KIR in the phosphorylated p62): approximately 100 times |
